# Results from US12421222B2 (AUGUSTINE THERAPEUTICS, priority 2021, dated 2025).
# Tested on: acetylated tubulin (Lys40) in HeLa cells
# Assay: Acetylated α-tubulin measurement in vitro (immunocytochemistry)
# Assay type: cell-based
# Details: Homo sapiens, 6 hours incubation, acetylated tubulin (Lys40) by immunocytochemistry, read-out: IC50 (Tubulin deacetylation)
# Procedure, shortened: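 HeLa cells in serum-free medium treated 6 h at 37 °C (final DMSO 0.1–0.4%), then PFA-fixed and immunostained for acetyl-Lys40 and total α-tubulin; high-content imaging.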
row,SMILES,IC50
1,"COCC(=O)NCc1ccc(C(=O)CSc2nc(C)nc3ncc(OC)cc23)s1 [Example 163, 2-methoxy-N-((5-(2-((6-methoxy-2-methylpyrido[2,3-d]pyrimidin-4-yl)thio)acetyl)thiophen-2-yl)methyl)acetamide]",100 to 500 nM
2,"COc1ccc2nc(C)nc(SCC(=O)c3ccc(CN4CCC(O)C4=O)s3)c2c1 (centres unmarked) [Example 141, 3-hydroxy-1-((5-(2-((6-methoxy-2-methylquinazolin-4-yl)thio)acetyl)thiophen-2-yl)methyl)pyrrolidin-2-one]",100 to 500 nM
3,"COc1ccc2nc(C)nc(SCC(=O)c3ccc(CN4CCOCC4=O)s3)c2c1 [Example 137, 4-((5-(2-((6-methoxy-2-methylquinazolin-4-yl)thio)acetyl)thiophen-2-yl)methyl)morpholin-3-one]",100 to 500 nM
4,"Cc1nc(SCC(=O)c2ccc(CNC(=O)CO)s2)c2cn(C)nc2n1 [Example 65, N-((5-(2-((2,6-dimethyl-2H-pyrazolo[3,4-d]pyrimidin-4-yl)thio)acetyl)thiophen-2-yl)methyl)-2-hydroxyacetamide]",1000 to 3330 nM
5,"Cn1ncc2c(SCC(=O)c3ccc(CNC(=O)C(C)(C)C)s3)nc(C(F)F)nc21 [Example 21, N-((5-(2-((6-(difluoromethyl)-1-methyl-1H-pyrazolo[3,4-d]pyrimidin-4-yl)thio)acetyl)thiophen-2-yl)methyl)pivalamide]",1000 to 3330 nM
6,"O=C(CO)NCc1ccc(C(=O)CSc2nccn3nccc23)s1 [Example 182, 2-hydroxy-N-((5-(2-(pyrazolo[1,5-a]pyrazin-4-ylthio)acetyl)thiophen-2-yl)methyl)acetamide]",500 to 1000 nM
7,"O=C(CSc1nc(C(F)(F)F)nc2nn(C3CC3)cc12)c1ccc(CNC(=O)C(F)(F)C(F)(F)F)s1 [Example 44, N-((5-(2-((2-cyclopropyl-6-(trifluoromethyl)-2H-pyrazolo[3,4-d]pyrimidin-4-yl)thio)acetyl)thiophen-2-yl)methyl)-2,2,3,3,3-pentafluoropropanamide]",100 to 500 nM
8,"O=C(CO)NCc1ccc(C(=O)CSc2nccc3ccncc23)s1 [Example 180, N-((5-(2-((2,7-naphthyridin-1-yl)thio)acetyl)thiophen-2-yl)methyl)-2-hydroxyacetamide]",100 to 500 nM
9,"COc1ccc2nc(C)nc(SCC(=O)c3ccc(CNC(=O)C(F)F)s3)c2c1 [Example 172, 2,2-difluoro-N-((5-(2-((6-methoxy-2-methylquinazolin-4-yl)thio)acetyl)thiophen-2-yl)methyl)acetamide]",100 to 500 nM
10,"COc1ccc2nc(C)nc(SCC(=O)c3ccc(CNC(=O)C4CC4)s3)c2c1 [Example 51, N-((5-(2-((6-methoxy-2-methylquinazolin-4-yl)thio)acetyl)thiophen-2-yl)methyl)cyclopropanecarboxamide]",1000 to 3330 nM
11,"Cn1ncc2c(SCC(=O)c3ccc(C4CCN(C(=O)CO)C4)s3)ncnc21 (centres unmarked) [Example 86, 2-hydroxy-1-(3-(5-(2-((1-methyl-1H-pyrazolo[3,4-d]pyrimidin-4-yl)thio)acetyl)thiophen-2-yl)157yrrolidine-1-yl)ethan-1-one]",1000 to 3330 nM
12,"Cc1nnc(SCC(=O)c2ccc(CNC(=O)C(C)(C)C)s2)c2ccccc12 [Example 194, N-((5-(2-((4-methylphthalazin-1-yl)thio)acetyl)thiophen-2-yl)methyl)pivalamide]",500 to 1000 nM
13,"COc1ccc2c(SCC(=O)c3ccc(CNC(=O)C(C)(C)C)s3)nc(C)nc2c1 [Example 12, N-((5-(2-((7-methoxy-2-methylquinazolin-4-yl)thio)acetyl)thiophen-2-yl)methyl)pivalamide]",1000 to 3330 nM
14,"O=C(CSc1nc(C(F)(F)F)nc2nn(C3CC3)cc12)c1ccc(CNC(=O)C2CC2(F)F)s1 (centres unmarked) [Example 43, N-((5-(2-((2-cyclopropyl-6-(trifluoromethyl)-2H-pyrazolo[3,4-d]pyrimidin-4-yl)thio)acetyl)thiophen-2-yl)methyl)-2,2-difluorocyclopropane-1-carboxamide]",100 to 500 nM
15,"Cc1nc(SCC(=O)c2ccc(CNC(=O)C(C)(C)C)s2)c2ccc(Cl)cc2n1 [Example 8, N-((5-(2-((7-chloro-2-methylquinazolin-4-yl)thio)acetyl)thiophen-2-yl)methyl)pivalamide]",> 3330 nM
16,"O=C(CSc1nc(C(F)(F)F)nc2ncccc12)c1ccc(CN2CCC(O)C2=O)s1 (stereo in doubt) [Example 155, (S)-3-hydroxy-1-((5-(2-((2-(trifluoromethyl)pyrido[2,3-d]pyrimidin-4-yl)thio)acetyl)thiophen-2-yl)methyl)pyrrolidin-2-one]",≤ 100 nM
17,Cn1ncc2c(SCC(=O)c3ccc(CNS(C)(=O)=O)s3)ncnc21 [Example 87],1000 to 3330 nM
18,"Cn1ncc2c(SCC(=O)c3ccc(CNC(=O)c4ccccc4)s3)ncnc21 [Example 30, N-((5-(2-((1-methyl-1H-pyrazolo[3,4-d]pyrimidin-4-yl)thio)acetyl)thiophen-2-yl)methyl)benzamide]",1000 to 3330 nM

# More lines, now with the values ahead:
row,IC50,SMILES
1,≤ 100 nM,"Cn1cc2c(SCC(=O)c3ccc(CNC(=O)CO)s3)nc(C(F)(F)F)nc2n1 [Example 61, 2-hydroxy-N-((5-(2-((2-methyl-6-(trifluoromethyl)-2H-pyrazolo[3,4-d]pyrimidin-4-yl)thio)acetyl)thiophen-2-yl)methyl)acetamide]"
2,≤ 100 nM,"O=C(CO)NCc1ccc(C(=O)CSc2nccc3ncccc23)s1 [Example 179, N-((5-(2-((1,6-naphthyridin-5-yl)thio)acetyl)thiophen-2-yl)methyl)-2-hydroxyacetamide]"
3,≤ 100 nM,"Cc1nc(SCC(=O)c2ccc(CNC(=O)CO)s2)c2cc(N3CCN(C)CC3)ccc2n1 [Example 85, 2-hydroxy-N-((5-(2-((2-methyl-6-(4-methylpiperazin-1-yl)quinazolin-4-yl)thio)acetyl)thiophen-2-yl)methyl)acetamide]"
4,≤ 100 nM,"COc1cc2c(SCC(=O)c3ccc(CNC(=O)CO)s3)nc(C(F)(F)F)nc2cn1 [Example 154, 2-hydroxy-N-((5-(2-((6-methoxy-2-(trifluoromethyl)pyrido[3,4-d]pyrimidin-4-yl)thio)acetyl)thiophen-2-yl)methyl)acetamide]"
5,≤ 100 nM,"O=C(CSc1nc(C(F)(F)F)nc2ncccc12)c1ccc(CN2CCC(O)C2=O)s1 (stereo in doubt) [Example 156, (R)-3-hydroxy-1-((5-(2-((2-(trifluoromethyl)pyrido[2,3-d]pyrimidin-4-yl)thio)acetyl)thiophen-2-yl)methyl)pyrrolidin-2-one]"
6,≤ 100 nM,"O=C(CO)NCc1ccc(C(=O)CSc2nc3ccc(C(F)(F)F)nc3o2)s1 [Example 117, 2-hydroxy-N-((5-(2-((5-(trifluoromethyl)oxazolo[5,4-b]157yrrolid-2-yl)thio)acetyl)thiophen-2-yl)methyl)acetamide]"
7,≤ 100 nM,"Cc1nc(SCC(=O)c2ccc(CNC(=O)CO)s2)c2cc(N(C)C)ncc2n1 [Example 149, N-((5-(2-((6-(dimethylamino)-2-methylpyrido[3,4-d]pyrimidin-4-yl)thio)acetyl)thiophen-2-yl)methyl)-2-hydroxyacetamide]"
8,≤ 100 nM,"O=C(CO)NCc1ccc(C(=O)CSc2nc(C(F)(F)F)nc3nn(C4CC4)cc23)s1 [Example 79, N-((5-(2-((2-cyclopropyl-6-(trifluoromethyl)-2H-pyrazolo[3,4-d]pyrimidin-4-yl)thio)acetyl)thiophen-2-yl)methyl)-2-hydroxyacetamide]"
